Assay results published in US20060263453A1, “Methods and compositions for modulating glutamate dehydrogenase” (priority 2004, published 2006).

How the values were obtained:
islets = assay: [U-14C]-glucose oxidation in islets; assay type: cell-based, rat; details: wide range of EGCG concentrations; 3 mM or 12 mM glucose; FIG. 10
Description: In addition, the effect of EGCG on glucose oxidation was measured. More particularly, batches of 100 islets were prepared as described herein and preincubated with glucose-free Krebs-Ringer bicarbonate buffer containing varying concentrations of EGCG (shown in FIG. 10) for 60 minutes. Islets were then incubated with 3 mM or 12 mM glucose, in the presence of the varying concentrations of EGCG, for another 60 minutes, along with 2 mCi [U-^14C]-glucose (NEN-Life Science Products, UK). Production of ^14CO2 was monitored as described above.

[1] = cited from earlier work
rat islets [2] = assay: glucose stimulated insulin secretion in 120 minute run-down islets; assay type: cell-based
Description: Under brief “run-down” conditions used for the above GSIS analysis, where glucose was removed from the cells for only […], the levels of high-energy metabolites (i.e., GTP and ATP) have not been depleted and these effectively shut down GDH activity. This, in turn, eliminated any effect GDH might have on insulin secretion. Therefore, the effects of EGCG were also tested on […] that had been “run-down” for a longer period of time (120 minutes) prior to glucose stimulation (FIG. 11). Specifically, isolated rat islets were cultured with 10 mM glucose for 3 days and then perifused in the absence of glucose and in the presence of 0 or 20 μM EGCG (or 20 μM EGC) for “run-down” periods of 120 minutes prior to stimulation with a glucose ramp (0 to 25 mM, 0.5 mM/minute). Finally, islets were exposed to 30 mM KCl. The insert highlighted the insulin secretion from time=120 minutes to 140 minutes.

[3] = test system: GDH from Tetrahymena thermophilia (tGDH); assay: kinetic analysis of Tetrahymena GDH; assay type: biochemical; details: FIG. 4
Description: (§1) First, aliquots of GDH were extensively dialyzed against 0.1M sodium phosphate buffer, pH 7.0, which contained 1 mM ethylenediaminetetraacetic acid (EDTA). The enzyme concentrations were adjusted to 1 mg/ml and the amount of enzyme added to the reaction mixture, for kinetic analysis, was adjusted to yield optimal steady state velocity measurements. All solutions were made immediately prior to use. Enzyme assays were performed by monitoring reduced coenzyme absorbance at 340 nm using a Shimadzu UV-1601 spectrophotometer. The reductive amination reactions were performed in 3 mL volumes at pH 7.0 in the presence of 0.1 mM nicotinamide adenine dinucleotide (NADH), 50 mM NH4Cl, and 5 mM 2-oxoglutarate. The rate of NADH oxidation was calculated using an extinction coefficient of 6.22 mM^−1 cm^−1.
(§2) To this end, EGCG was tested against five different HI/HA mutant forms of GDH, namely, R265K, R269C, E296A, S448P, and H454Y. In addition, EGCG was tested against human wild type GDH (“WT”), GDH from Tetrahymena thermophilia (“tGDH”) that, like the HI/HA mutant GDH enzymes, is not regulated by GTP, and a human GDH that was missing a certain 48 residue ‘antenna-like’ feature protruding from the top of each of its six subunits that is necessary for ADP, GTP, and Palmitoyl CoA regulation. […]

rat islets [4] = assay: BCH-stimulated insulin secretion in perifused islets (120 minute run-down, BCH ramp); assay type: cell-based, Wistar rat
Description: In this Example, adult male Wistar rat islets were isolated by collagenase digestion and initially cultured in glucose-free RPMI […] medium (Sigma Aldrich Chemical Company, St. Louis, Mo.). The culture medium was supplemented with 10% fetal bovine serum, 2 mM glutamine, 100 units/mL penicillin, and 50 μg/mL streptomycin.
The islets were then perifused in the absence of glucose and in the presence of 2 mM glutamine (and the different concentrations of EGCG or EGC shown in FIG. 5) for run-down periods of 120 minutes prior to stimulation with a BCH ramp (0 to 10 mM, 0.2 mM/minute). Specifically, 100 cultured rat islets were loaded onto nylon filters in a small chamber and perifused in a Krebs-Ringer bicarbonate buffer (115 mmol/liter NaCl, 24 mmol/liter NaHCO3, 5 mmol/liter KCl, 1 mmol/liter MgCl2, 2.5 mmol/liter CaCl2, in 10 mM HEPES, pH 7.4) with 0.25% bovine serum albumin at a flow rate of 2 mL/minute. Perifusate solutions were gassed with 95% O2/5% CO2 and maintained at 37° C. Finally, the islets were exposed to 30 mM KCl. Samples were collected every minute to measure insulin levels by radioimmunoassay.

rat islets [5] = assay: glucose stimulated insulin secretion (GSIS), short run-down (50 minutes), glucose ramp; assay type: cell-based; details: 20 μM, FIGS. 8A and 8B
Description: In this Example, the effect of EGCG on glucose stimulated insulin secretion (GSIS) was examined. Isolated rat islets were cultured with 20 mM glucose (FIG. 8A) and 10 mM glucose (FIG. 8B) for 3 days, then perifused in the absence of glucose for 50 minutes and in the presence of 0 μM EGCG; 20 μM EGCG; or 20 μM EGC. Next, the islets were stimulated by a glucose ramp (0 to 25 mM, 0.5 mM/minute). Finally, the islets were exposed to 30 mM KCl. Insulin levels were measured every minute by radioimmunoassay. The results shown in FIG. 8A are presented as means±S.E. for 100 islets from 3 separate experiments (and means±S.E. for 100 islets from 1 experiment for FIG. 8B).

Bovine GDH (bGDH) = target: T1, Bovine GDH (bGDH) (Bos taurus, UniProt P00366); assay: reductive amination reaction catalyzed by bovine GDH (NADH absorbance at 340 nm); assay type: biochemical
T1 construct: purchased Sigma Aldrich Chemical Company (St. Louis, Mo.)
T1 sequence (P00366 58-558): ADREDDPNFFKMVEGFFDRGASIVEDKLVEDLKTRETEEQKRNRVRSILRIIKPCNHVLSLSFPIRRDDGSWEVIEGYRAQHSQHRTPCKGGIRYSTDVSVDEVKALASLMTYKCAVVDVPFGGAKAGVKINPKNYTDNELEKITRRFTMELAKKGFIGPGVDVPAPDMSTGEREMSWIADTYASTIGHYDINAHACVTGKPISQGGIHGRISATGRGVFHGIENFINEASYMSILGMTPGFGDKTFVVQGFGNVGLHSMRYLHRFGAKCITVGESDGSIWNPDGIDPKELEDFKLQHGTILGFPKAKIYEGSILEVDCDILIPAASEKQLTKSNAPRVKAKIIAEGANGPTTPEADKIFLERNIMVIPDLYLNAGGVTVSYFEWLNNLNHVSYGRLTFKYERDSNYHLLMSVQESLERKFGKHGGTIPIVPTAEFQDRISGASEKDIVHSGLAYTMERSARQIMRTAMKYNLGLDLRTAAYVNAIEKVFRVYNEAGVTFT
Description: In this Example, the effects of epigallocatechin gallate (EGCG), epigallocatechin (EGC), epicatechin gallate (ECG), and epicatechin (EC) from Camellia sinensis on GDH activity were tested. Bovine GDH (bGDH) was used in this Example, which was obtained as an aqueous (NH4)2SO4 suspension from Sigma Aldrich Chemical Company (St. Louis, Mo.).
as §1

[6] = test system: HI/HA mutant forms of GDH (R265K, R269C, E296A, S448P, H454Y); assay: kinetic analysis of HI/HA mutant forms of GDH; assay type: biochemical, human; details: FIG. 4
Description: as §1, §2

[7] = ethanol, DMSO, dimethyl formamide

## O=C(O[C@@H]1Cc2c(O)cc(O)cc2O[C@@H]1c1cc(O)c(O)c(O)c1)c1cc(O)c(O)c(O)c1 [EGCG, (2R,3R)-2-(3,4,5-Trihydroxyphenyl)-3,4-dihydro-1 (2H)-benzopyran-3,5,7-triol 3-(3,4,5-trihydroxybenzoate)]
islets
  effect on glucose oxidation: did not affect
[1]; [7]
  solubility in organic solvents: at least 20 mg/mL
  soluble in organic solvents: soluble
[1]; pH 7.2
  solubility in phosphate buffered saline (PBS): at least 25 mg/mL
Rat islets [2]; 20 μM, 120 minute run-down, FIG. 11
  potentiation of GSIS: potentiates
Rat islets [2]; 30 mM KCl
  effect on KCl-stimulated release of insulin: neither EGCG or EGC affected
[3]
  inhibition of tGDH: inhibited
Rat islets [4]; 30 mM KCl
  intrinsic ability of the cells to secrete insulin (depolarization by KCl): did not affect
Rat islets [4]; FIG. 5
  BCH stimulation of insulin secretion blocked: blocked
Rat islets [5]
  effect on GSIS: neither EGC nor EGCG affected
Bovine GDH (bGDH); FIG. 1A
  potent inhibitor of GDH activity: potent inhibitors
Bovine GDH (bGDH); dialysis of an EGCG/GDH mixture, data not shown
  reversibility of inhibition: reversible
[6]
  inhibition of the activity of HI/HA GDH enzymes: substantially the same efficacy as with wild type human GDH
